Key:
[1] = system: EGFR Del19/T790M/C797S (BaF3-DTC cells); test: EGFR degradation HTRF assay, BaF3-DTC cells; format: cell-based; settings: 16h treatment; for DTC Dmax (%): maximum percentage of degradation; for DC50: read-out: DTC DC50
Description: BaF3 WT(wild type), BaF3-LTC(L858R/T790M/C797S) and BaF3-DTC(Del19/T790M/C797S) cells are treated with compounds diluted in 0.2% DMSO cell culture medium and incubate for 16h, 37° C., 5% CO2, H1975-#36, H1975-#28, H1975-#23 and HCC827 cells are treated with compounds diluted in 0.2% DMSO cell culture medium on day 2, incubate for 16h, 37° C., 5% CO2.the final concentriation of compounds in all assay is start with 10 uM, 5-fold dilution, total 8 doses were included.
After 16h treatment, add HTRF lysis buffer to each well; seal the plate and incubate 1 hour at room temperature on a plate shaker; Once the cells are lysed, 16 μL of cell lysate are transferred to a PE 384-well HTRF detection plate; 4 μL of pre-mixed HTRF antibodies are added to each well; Cover the plate with a plate sealer, spin 1000 rpm for 1 min, Incubate overnight at room temperature; Read on BMG PheraStar with HTRF protocol (337 nm-665 nm-620 nm).
The inhibition (degradation) percentage of the compound was calculated by the following equation: Inhibition percentage of Compound=100-100×(Signal-low control)/(High control-low control), wherein signal=each test compound group
High control=Cell group with added DMSO and without compound, indicating microplate readings without EGFR degradation;
Dmax is the maximum percentage of inhibition (degradation).
The IC50 (DC50) value of a compound can be obtained by fitting the following equation
Y=Bottom+(TOP−Bottom)/(1+((IC50/X)^hillslope))
Wherein, X and Y are known values, and IC50, Hillslope, Top and Bottom are the parameters obtained by fitting with software. Y is the inhibition percentage (calculated from the equation), X is the concentration of the compound; IC50 is the concentration of the compound when the 50% inhibition is reached. The smaller the IC50 value is, the stronger the inhibitory ability of the compound is. Vice versa, the higher the IC50 value is, the weaker the inhibitory ability of the compound is; Hillslope represents the slope of the fitted curve, generally around 1*; Bottom represents the minimum value of the curve obtained by data fitting, which is generally 0%±20%; Top represents the maximum value of the curve obtained by data fitting, which is generally 100%±20%. The experimental data were fitted by calculating and analyzing with Dotmatics data analysis software.

[2] = biological target: T1, EGFR L858R/T790M/C797S (BaF3-LTC cells) (Homo sapiens, UniProt P00533, C797S/L858R/T790M); test: EGFR degradation HTRF assay, BaF3-LTC cells; format: cell-based; settings: BaF3-LTC, 16h treatment; for Dmax: maximum percentage of degradation, read-out: LTC Dmax (%); for DC50: read-out: LTC DC50
T1 construct: expressed in transfected cells; host or cells: BaF3
Outline: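 Cells treated 16 h at 37 °C, 5% CO2 in medium with 0.2% DMSO; top final concentration 10 uM, 5-fold dilution, 8 doses. Lysates read by HTRF (665/620 nm); degradation % versus DMSO high control, DC50 from four-parameter fit, Dmax as maximal degradation.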

T1 sequence (P00533 25-1210 T790M/C797S/L858R): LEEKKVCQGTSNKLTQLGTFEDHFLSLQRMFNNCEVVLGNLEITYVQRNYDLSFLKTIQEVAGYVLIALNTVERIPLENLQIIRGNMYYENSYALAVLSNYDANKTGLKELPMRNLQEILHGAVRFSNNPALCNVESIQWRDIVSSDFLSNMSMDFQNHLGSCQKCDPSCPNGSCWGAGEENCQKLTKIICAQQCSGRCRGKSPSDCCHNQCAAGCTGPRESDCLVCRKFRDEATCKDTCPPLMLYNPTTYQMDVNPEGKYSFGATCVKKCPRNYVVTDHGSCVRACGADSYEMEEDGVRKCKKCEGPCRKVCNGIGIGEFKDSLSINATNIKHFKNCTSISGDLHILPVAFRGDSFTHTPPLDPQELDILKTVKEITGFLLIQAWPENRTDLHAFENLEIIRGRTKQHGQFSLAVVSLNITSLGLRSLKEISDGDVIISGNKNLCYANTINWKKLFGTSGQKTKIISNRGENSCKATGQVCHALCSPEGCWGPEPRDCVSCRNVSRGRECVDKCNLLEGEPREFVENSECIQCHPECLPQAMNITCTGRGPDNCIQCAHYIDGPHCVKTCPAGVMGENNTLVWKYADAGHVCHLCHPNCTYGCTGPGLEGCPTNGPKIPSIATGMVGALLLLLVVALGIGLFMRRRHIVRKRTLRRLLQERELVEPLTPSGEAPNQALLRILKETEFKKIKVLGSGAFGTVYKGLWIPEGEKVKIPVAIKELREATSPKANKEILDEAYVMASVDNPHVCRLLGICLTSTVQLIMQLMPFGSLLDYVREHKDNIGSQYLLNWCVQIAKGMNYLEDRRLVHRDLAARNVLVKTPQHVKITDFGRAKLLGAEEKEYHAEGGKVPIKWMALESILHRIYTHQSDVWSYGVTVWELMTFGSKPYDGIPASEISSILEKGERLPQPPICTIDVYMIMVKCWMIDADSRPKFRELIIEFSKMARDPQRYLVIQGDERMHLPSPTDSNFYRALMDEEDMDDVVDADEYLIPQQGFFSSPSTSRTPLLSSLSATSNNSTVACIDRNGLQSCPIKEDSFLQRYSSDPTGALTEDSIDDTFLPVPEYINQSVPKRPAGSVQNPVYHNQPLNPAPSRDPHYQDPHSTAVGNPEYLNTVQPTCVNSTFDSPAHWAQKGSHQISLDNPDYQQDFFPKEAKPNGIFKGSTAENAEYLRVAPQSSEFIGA

Row | Structure (SMILES) | DTC Dmax (%) [1] [%] | DC50 [1] [nM] | Dmax [2] [%] | DC50 [2] [nM]
1 | CCc1cc(Nc2ncc(Br)c(Nc3ccc4nccnc4c3P(C)(C)=O)n2)c(OC)cc1N1CCC(N2CCN(C(=O)[C@@H]3CCN(c4ccc5c(c4)CN(C4CCC(=O)NC4=O)C5=O)C3)CC2)CC1 (stereo partly drawn) [Example 241, 3-(5-((R)-3-(4-(1-(4-((5-bromo-4-((5-(dimethylphosphoryl)quinoxalin-6-yl)amino)pyrimidin-2-yl)amino)-2-ethyl-5-methoxyphenyl)piperidin-4-yl)piperazine-1-carbonyl)pyrrolidin-1-yl)-1-oxoisoindolin-2-yl)piperidine-2,6-dione] | 89.74 | 3.26 | 87.6 | 4.6
2 | CCc1cc(Nc2ncc(Br)c(Nc3ccc4nc(C)ccc4c3P(C)(C)=O)n2)c(OC)cc1N1CCC(N2CCN(CCc3ccc4c(c3)C3(CC3)C(=O)N4C3CCC(=O)NC3=O)CC2)CC1 (stereo not drawn) [Example 710, 3-(5′-(2-(4-(1-(4-((5-bromo-4-((5-(dimethylphosphoryl)-2-methylquinolin-6-yl)amino)pyrimidin-2-yl)amino)-2-ethyl-5-methoxyphenyl)piperidin-4-yl)piperazin-1-yl)ethyl)-2′-oxospiro[cyclopropane-1,3′-indolin]-1′-yl)piperidine-2,6-dione] | 87.65 | 2.69 | 90.9 | 13.6
3 | CCc1cc(Nc2ncc(Br)c(Nc3ccc4nccnc4c3P(C)(C)=O)n2)c(OC)cc1N1CCC(N2CCN(CCN(C)c3ccc4c(c3)C(=O)N(C3CCC(=O)NC3=O)C4)CC2)CC1 (stereo not drawn) [Example 249, 3-(6-((2-(4-(1-(4-((5-bromo-4-((5-(dimethylphosphoryl)quinoxalin-6-yl)amino)pyrimidin-2-yl)amino)-2-ethyl-5-methoxyphenyl)piperidin-4-yl)piperazin-1-yl)ethyl)(methyl)amino)-1-oxoisoindolin-2-yl)piperidine-2,6-dione] | 90.4 | 3.01 | 86.7 | 28.6
4 | CCc1cc(Nc2ncc(Br)c(Nc3ccc4nc(C)c(C)cc4c3P(C)(C)=O)n2)c(OC)cc1N1CCC(N2CCN(CCc3cc(F)c(C4CCC(=O)NC4=O)c(F)c3)CC2)CC1 (stereo not drawn) [Example 707, 3-(4-(2-(4-(1-(4-((5-bromo-4-((5-(dimethylphosphoryl)-2,3-dimethylquinolin-6-yl)amino)pyrimidin-2-yl)amino)-2-ethyl-5-methoxyphenyl)piperidin-4-yl)piperazin-1-yl)ethyl)-2,6-difluorophenyl)piperidine-2,6-dione] | 82.86 | 3.29 | 92.1 | 5.79
5 | CCc1cc(Nc2ncc(Br)c(Nc3ccc4nc(C)ccc4c3P(C)(C)=O)n2)c(OC)cc1N1CCC(N2CCN(C(=O)CNc3cc(F)c(C4CCC(=O)NC4=O)c(F)c3)CC2)CC1 (stereo not drawn) [Example 432, 3-(4-((2-(4-(1-(4-((5-bromo-4-((5-(dimethylphosphoryl)-2-methylquinolin-6-yl)amino)pyrimidin-2-yl)amino)-2-ethyl-5-methoxyphenyl)piperidin-4-yl)piperazin-1-yl)-2-oxoethyl)amino)-2,6-difluorophenyl)piperidine-2,6-dione] | 94.91 | 1.19 | 93 | 4.24
6 | CCc1cc(Nc2ncc(Br)c(Nc3ccc4nccnc4c3P(C)(C)=O)n2)c(OC)cc1N1CCC(N2CCN(CCCc3cc(F)c(C4CCC(=O)NC4=O)c(F)c3)CC2)CC1 (stereo not drawn) [Example 205, 3-(4-(3-(4-(1-(4-((5-bromo-4-((5-(dimethylphosphoryl)quinoxalin-6-yl)amino)pyrimidin-2-yl)amino)-2-ethyl-5-methoxyphenyl)piperidin-4-yl)piperazin-1-yl)propyl)-2,6-difluorophenyl)piperidine-2,6-dione] | 90.39 | 6.63 | 87.7 | 32.5
7 | CCc1cc(Nc2ncc(Br)c(Nc3ccc4nc(C)ccc4c3P(C)(C)=O)n2)c(OC)cc1N1CCC(N2CCC(C(=O)N3CCC(c4cc(F)c(C5CCC(=O)NC5=O)c(F)c4)CC3)CC2)CC1 (stereo not drawn) [Example 700, 3-(4-(1-(1′-(4-((5-bromo-4-((5-(dimethylphosphoryl)-2-methylquinolin-6-yl)amino)pyrimidin-2-yl)amino)-2-ethyl-5-methoxyphenyl)-[1,4′-bipiperidine]-4-carbonyl)piperidin-4-yl)-2,6-difluorophenyl)piperidine-2,6-dione] | 83.8 | 6.49 | 92.4 | 13.1
8 | CCc1cc(Nc2ncc(Br)c(Nc3ccc4nc(C(C)C)ccc4c3P(C)(C)=O)n2)c(OC)cc1N1CCC(N2CCN(CCC3CCN(c4cc(F)c(C5CCC(=O)NC5=O)c(F)c4)CC3)CC2)CC1 (stereo not drawn) [Example 313, 3-(4-(4-(2-(4-(1-(4-((5-bromo-4-((5-(dimethylphosphoryl)-2-isopropylquinolin-6-yl)amino)pyrimidin-2-yl)amino)-2-ethyl-5-methoxyphenyl)piperidin-4-yl)piperazin-1-yl)ethyl)piperidin-1-yl)-2,6-difluorophenyl)piperidine-2,6-dione] | 90.8 | 28.6 | 87.5 | 53.7
9 | CCc1cc(Nc2ncc(Br)c(Nc3ccc4nc(C)ccc4c3P(C)(C)=O)n2)c(OC)cc1N1CCC(N2C[C@H](C)N(CCc3cc(F)c(C4CCC(=O)NC4=O)c(F)c3)C[C@H]2C)CC1 (stereo partly drawn) [Example 716, 3-(4-(2-((2S,5R)-4-(1-(4-((5-bromo-4-((5-(dimethylphosphoryl)-2-methylquinolin-6-yl)amino)pyrimidin-2-yl)amino)-2-ethyl-5-methoxyphenyl)piperidin-4-yl)-2,5-dimethylpiperazin-1-yl)ethyl)-2,6-difluorophenyl)piperidine-2,6-dione] | 91.65 | 3.06 | 90 | 8.2
10 | CCc1cc(Nc2ncc(Br)c(Nc3ccc4nc(CO)ccc4c3P(C)(C)=O)n2)c(OC)cc1N1CCC(N2CCN(CCc3cc(F)c(C4CCC(=O)NC4=O)c(F)c3)CC2)CC1 (stereo not drawn) [Example 329, 3-(4-(2-(4-(1-(4-((5-bromo-4-((5-(dimethylphosphoryl)-2-(hydroxymethyl)quinolin-6-yl)amino)pyrimidin-2-yl)amino)-2-ethyl-5-methoxyphenyl)piperidin-4-yl)piperazin-1-yl)ethyl)-2,6-difluorophenyl)piperidine-2,6-dione] | 96.43 | 1.72 | 92.4 | 2.9
11 | CCc1cc(Nc2ncc(Br)c(Nc3ccc4nc(C)ccc4c3P(C)(C)=O)n2)c(OC)cc1N1CCC(N2CCN(C3CC(c4ccc(NC5CCC(=O)NC5=O)cc4)C3)CC2)CC1 (stereo not drawn) [Example 709, 3-((4-(3-(4-(1-(4-((5-bromo-4-((5-(dimethylphosphoryl)-2-methylquinolin-6-yl)amino)pyrimidin-2-yl)amino)-2-ethyl-5-methoxyphenyl)piperidin-4-yl)piperazin-1-yl)cyclobutyl)phenyl)amino)piperidine-2,6-dione] | 84.65 | 19.8 | 87.9 | 21.6
12 | CCc1cc(Nc2ncc(Br)c(Nc3ccc4ncn(C)c(=O)c4c3P(C)(C)=O)n2)c(OC)cc1N1CCC(N2CCN(C(=O)C3CN(c4ccc5c(c4)CN(C4CCC(=O)NC4=O)C5=O)C3)CC2)CC1 (stereo not drawn) [Example 712, 3-(5-(3-(4-(1-(4-((5-bromo-4-((5-(dimethylphosphoryl)-3-methyl-4-oxo-3,4-dihydroquinazolin-6-yl)amino)pyrimidin-2-yl)amino)-2-ethyl-5-methoxyphenyl)piperidin-4-yl)piperazine-1-carbonyl)azetidin-1-yl)-1-oxoisoindolin-2-yl)piperidine-2,6-dione] | 91.27 | 2.06 | 88.6 | 7.34

Reference: patent US20230265116A1, “DEGRADATION OF (EGFR) BY CONJUGATION OF EGFR INHIBITORS WITH E3 LIGASE LIGAND AND METHODS OF USE” (BEIGENE, LTD., priority 2020, published 2023)
